Reference: PubChem BioAssay AID256 (DTP/NCI, 2004)
Where “and” joins values, the source holds several entries; their conditions need not be identical. Identical values can stand only once. Toxic doses and inconclusive results are not listed. How the source made its calls: active means survival T/C of 150% or more; inactive means T/C below 125% in these data.

System: CD2F1 mice, L1210 leukemia ip, survival T/C
Assay: NCI In Vivo Anticancer Drug Screen. Data for tumor model L1210 Leukemia (intraperitoneal) in CD2F1 (CDF1) mice
Settings: endpoint: mean survival time, higher = longer survival
Summary of the method: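 Compound-dosed mice with transplantable tumor versus matched vehicle controls; endpoint ratio T/C reported.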

[1] = dose: 100.0 mg/kg/injection, schedule: Q01DX009 (ip), vehicle: saline with Tween-80
[2] = dose: 200.0 mg/kg/injection, schedule: Q01DX009 (ip), vehicle: saline with Tween-80
[3] = dose: 100.0 mg/kg/injection, schedule: Q04DX003 (ip), vehicle: saline with Tween-80
[4] = dose: 200.0 mg/kg/injection, schedule: Q04DX003 (ip), vehicle: saline with Tween-80
[5] = dose: 400.0 mg/kg/injection, schedule: Q04DX003 (ip), vehicle: saline with Tween-80
[6] = dose: 400.0 mg/kg/injection, schedule: Q01DX009 (ip), vehicle: saline with Tween-80

Measured: T/C

Nc1ccc(OCc2nc(N)nc(N)c2-c2cccc(Cl)c2)cc1
inactive: dose: 100.0 mg/kg/injection, schedule: Q01DX001 (ip), vehicle: saline + alcohol 103 % of control | dose: 200.0 mg/kg/injection, schedule: Q01DX001 (ip), vehicle: saline + alcohol 101 % of control | dose: 400.0 mg/kg/injection, schedule: Q01DX001 (ip), vehicle: saline + alcohol 106 % of control

[C-]#[O+].[C-]#[O+].[C-]#[O+].[C-]#[O+].[C-]#[O+].[Cr].c1ccc([PH+](c2ccccc2)c2ccccc2)cc1
inactive: dose: 50.0 mg/kg/injection, schedule: Q01DX009 (ip), vehicle: saline with Tween-80 100 % of control | [1] 91 % of control | [2] 93 % of control

C1CCC(N2CCOCC2)CC1
inactive: dose: 25.0 mg/kg/injection, schedule: Q04DX002 (ip), vehicle: saline 105 % of control | dose: 50.0 mg/kg/injection, schedule: Q04DX002 (ip), vehicle: saline 102 % of control

O=C1OC2CCCCC2c2ccccc21 (stereo not drawn)
inactive: [3] 98 % of control | [4] 96 % of control | [5] 98 % of control

O=C(O)CCN1CCS(=O)(=O)C1=S
inactive: dose: 75.0 mg/kg/injection, schedule: Q01DX001 (ip), vehicle: other 101 % of control | dose: 150.0 mg/kg/injection, schedule: Q01DX001 (ip), vehicle: other 95 % of control | dose: 300.0 mg/kg/injection, schedule: Q01DX001 (ip), vehicle: other 104 % of control

ClCCOCCOc1ccc(C2CCCCC2)cc1
inactive: dose: 100.0 mg/kg/injection, schedule: Q04DX003 (ip), vehicle: saline sonified 97 % of control | dose: 200.0 mg/kg/injection, schedule: Q04DX003 (ip), vehicle: saline sonified 97 % of control | dose: 400.0 mg/kg/injection, schedule: Q04DX003 (ip), vehicle: saline sonified 92 % of control

CSc1ncnc2c1cnn2C1OC(CO)C(O)C1O (stereo not drawn)
inactive: dose: 12.5 mg/kg/injection, schedule: Q01DX005 (ip), vehicle: other 93 % of control | dose: 25.0 mg/kg/injection, schedule: Q01DX005 (ip), vehicle: other 100 % of control | dose: 50.0 mg/kg/injection, schedule: Q01DX005 (ip), vehicle: other 105 % of control | dose: 100.0 mg/kg/injection, schedule: Q01DX005 (ip), vehicle: other 122 % of control and 100 % of control | dose: 200.0 mg/kg/injection, schedule: Q01DX005 (ip), vehicle: other 119 % of control and 112 % of control

CC1=CCC=C(CNc2ncnc3nc[nH]c23)C1
inactive: [3] 87 % of control

CCOC(=O)Cc1cccc(C)n1
inactive: [1] 104 % of control | dose: 100.0 mg/kg/injection, schedule: Q04DX003 (ip), vehicle: saline 94 % of control | [2] 98 % of control | dose: 200.0 mg/kg/injection, schedule: Q04DX003 (ip), vehicle: saline 92 % of control | [6] 100 % of control | dose: 400.0 mg/kg/injection, schedule: Q04DX003 (ip), vehicle: saline 94 % of control

CC(C)[S][Pb]([c]1ccccc1)([c]1ccccc1)[c]1ccccc1
inactive: dose: 1.25 mg/kg/injection, schedule: Q01DX009 (ip), vehicle: gum acacia 93 % of control | dose: 2.5 mg/kg/injection, schedule: Q01DX009 (ip), vehicle: gum acacia 98 % of control | dose: 5.0 mg/kg/injection, schedule: Q01DX009 (ip), vehicle: gum acacia 96 % of control

CN(C)c1ccc(C=NCCCN=Cc2ccc(N(C)C)cc2)cc1
inactive: [1] 96 % of control | [3] 95 % of control | [2] 90 % of control | [4] 107 % of control | [6] 93 % of control | [5] 86 % of control

Cn1cccc1-c1cccnc1
inactive: dose: 75.0 mg/kg/injection, schedule: Q01DX001 (ip), vehicle: saline 97 % of control | dose: 150.0 mg/kg/injection, schedule: Q01DX001 (ip), vehicle: saline 100 % of control

COC(=O)C1(c2ccccn2)CCN(C)CC1
inactive: dose: 100.0 mg/kg/injection, schedule: Q01DX009 (ip), vehicle: saline 102 % of control | dose: 200.0 mg/kg/injection, schedule: Q01DX009 (ip), vehicle: saline 98 % of control | dose: 400.0 mg/kg/injection, schedule: Q01DX009 (ip), vehicle: saline 101 % of control

OCC1OC(n2cnc3c(/C=C(/O)c4ccccc4)ncnc32)C(O)C1O (stereo not drawn)
inactive: dose: 12.5 mg/kg/injection, schedule: Q01DX005 (ip), vehicle: distilled water + Tween-80 102 % of control | dose: 25.0 mg/kg/injection, schedule: Q01DX005 (ip), vehicle: distilled water + Tween-80 91 % of control | dose: 50.0 mg/kg/injection, schedule: Q01DX005 (ip), vehicle: distilled water + Tween-80 87 % of control | dose: 100.0 mg/kg/injection, schedule: Q01DX005 (ip), vehicle: distilled water + Tween-80 90 % of control | dose: 200.0 mg/kg/injection, schedule: Q01DX005 (ip), vehicle: distilled water + Tween-80 98 % of control
